Data published in ChEMBL document CHEMBL2069197 (ACS Med Chem Lett, 2012).
Converted amounts (≈) assume the structure as drawn.

Tests used:
[1] = Neuroprotective activity in cortical neurons assessed as reduction in glutamate-induced cell death at 5 uM incubated for 24 hrs prior to glutamate-challenge measured after 24 hrs by MTT assay; type: functional, Cortical neurone; set-up: scale not given: the % may be the effect or the level left
[2] = Stability in cortical neurons assessed as drug metabolism at 5 uM; type: ADME; conditions: cortical neurone
[3] = Aqueous solubility of the compound in phosphate buffered saline after 90 mins by laser nephelometry at pH 7.4; type: physicochemical
[4] = Aqueous solubility of the compound in phosphate buffered saline after 90 mins by laser nephelometry at pH 4; type: physicochemical
[5] = Half life in aqueous media at pH 7; type: physicochemical; conditions: for half-life: aqueous media; for t1/2: buffer
[6] = tested on: Rattus norvegicus; experiment: Drug metabolism in Sprague-Dawley rat plasma assessed as progesterone formation at 4 mg/kg, iv; type: ADME, organism-based; set-up: dose 4 mg/kg, route intravenous; conditions: in vivo
[7] = tested on: Rattus norvegicus; experiment: Neuroprotective activity in rat assessed as reduction in bilateral cortical contusion-induced cerebral edema at 4 mg/kg, iv administered as single dose 1 hr post-injury measured after 24 hrs relative to untreated; type: functional; set-up: scale not given: the % may be the effect or the level left
[8] = in vivo; conditions: Sprague-Dawley, rat, plasma, iv, 4 mg/kg
Description: Half life in Sprague-Dawley rat plasma at 4 mg/kg, iv

[9] = Drug metabolism in rat liver S9 fraction assessed as progesterone formation; type: ADME, subcellular
[10] = tested on: Liver; experiment: Metabolic stability in rat liver S9 fraction assessed as compound remaining; type: ADME, subcellular
[11] = tested on: Rattus norvegicus; experiment: Metabolic stability in Sprague-Dawley rat assessed as compound remaining at 10 mg/kg, iv administered as single dose by LC-MS/MS analysis; type: ADME, organism-based; set-up: dose 10 mg/kg, route intravenous; conditions: in vivo
[12] = tested on: Rattus norvegicus; experiment: Drug metabolism in Sprague-Dawley rat assessed as free oxime formation at 10 mg/kg, iv administered as single dose by LC-MS/MS analysis; type: ADME, organism-based; set-up: dose 10 mg/kg, route intravenous; conditions: in vivo
[13] = tested on: Rattus norvegicus; experiment: Drug metabolism in Sprague-Dawley rat assessed as progesterone formation at 10 mg/kg, iv administered as single dose by LC-MS/MS analysis; type: ADME, organism-based; set-up: dose 10 mg/kg, route intravenous; conditions: in vivo
[14] = tested on: Rattus norvegicus; experiment: Neuroprotective activity in rat assessed as reduction in bilateral cortical contusion-induced cerebral edema at 8 mg/kg, ip administered at 1 hr post-injury followed by 8 mg/kg, sc administered 6 hrs post-injury measured after 24 hrs relative to untreated control; type: functional; set-up: scale not given: the % may be the effect or the level left
[15] = tested on: Rattus norvegicus; experiment: Drug metabolism in Sprague-Dawley rat assessed as compound remaining at 10 mg/kg, im administered as single dose by LC-MS/MS analysis; type: ADME, organism-based; set-up: dose 10 mg/kg, route intramuscular; conditions: in vivo
[16] = tested on: Rattus norvegicus; experiment: Drug metabolism in Sprague-Dawley rat assessed as free oxime formation at 10 mg/kg, im administered as single dose by LC-MS/MS analysis; type: ADME, organism-based; set-up: dose 10 mg/kg, route intramuscular; conditions: in vivo
[17] = tested on: Rattus norvegicus; experiment: Drug metabolism in Sprague-Dawley rat assessed as progesterone formation at 10 mg/kg, im administered as single dose by LC-MS/MS analysis; type: ADME, organism-based; set-up: dose 10 mg/kg, route intramuscular; conditions: in vivo
[18] = tested on: Plasma; experiment: Drug metabolism rat plasma assessed as free oxime formation at 10 uM by LC-MS/MS analysis; type: ADME, cell-free
[19] = Drug metabolism in rat liver S9 fraction assessed as free oxime formation; type: ADME, subcellular
[20] = tested on: Plasma; experiment: Drug metabolism human plasma assessed as free oxime formation at 10 uM by LC-MS/MS analysis; type: ADME, cell-free
[21] = Neuroprotective activity in cortical neurons assessed as reduction in glutamate-induced cell death at 10 uM incubated for 24 hrs prior to glutamate-challenge measured after 24 hrs by MTT assay; type: functional, Cortical neurone; set-up: scale not given: the % may be the effect or the level left
[22] = Neuroprotective activity in cortical neurons assessed as reduction in glutamate-induced cell death at 1 uM incubated for 24 hrs prior to glutamate-challenge measured after 24 hrs by MTT assay; type: functional, Cortical neurone; set-up: scale not given: the % may be the effect or the level left
[23] = Neuroprotective activity in cortical neurons assessed as reduction in glutamate-induced cell death at 20 uM incubated for 24 hrs prior to glutamate-challenge measured after 24 hrs by MTT assay; type: functional, Cortical neurone; set-up: scale not given: the % may be the effect or the level left
[24] = Half life in human plasma; type: ADME, cell-free

Row | Compound | Activity [1] [%] | Stability [2] | solubility kinetic at 1.5 h [3] [µM] | solubility kinetic at 1.5 h [4] [µM] | half-life [5] [h] | also measured
1 | CC(=O)[C@H]1CC[C@H]2[C@@H]3CCC4=C/C(=N/O)CC[C@]4(C)[C@H]3CC[C@]12C | 21 | Stable | < 45 | < 45 | > 240 | Drug metabolism [6]: Not Active; Activity [7]: 60%; half-life [8]: 2.7 h
2 | C/C(=N\O)[C@H]1CC[C@H]2[C@@H]3CCC4=CC(=O)CC[C@]4(C)[C@H]3CC[C@]12C | – | Stable | – | – | – | Drug metabolism [9]: Not Active; Stability [10]: Stable
3 | CO/N=C(\C)[C@H]1CC[C@H]2[C@@H]3CCC4=CC(=O)CC[C@]4(C)[C@H]3CC[C@]12C | – | Stable | < 25 | < 25 | > 240 | –
4 | C/C(=N\OCCN1CCOCC1)[C@H]1CC[C@H]2[C@@H]3CCC4=CC(=O)CC[C@]4(C)[C@H]3CC[C@]12C | 26 | Stable | 108 (≈ 47.8 µg/mL) | > 450 | > 240 | –
5 | CC(=O)O/N=C(\C)[C@H]1CC[C@H]2[C@@H]3CCC4=CC(=O)CC[C@]4(C)[C@H]3CC[C@]12C | – | Stable | 100 (≈ 37.2 µg/mL) | 180 (≈ 66.9 µg/mL) | – | –
6 | C/C(=N\OC(=O)[C@@H](N)C(C)C)[C@H]1CC[C@H]2[C@@H]3CCC4=CC(=O)CC[C@]4(C)[C@H]3CC[C@]12C.Cl | 24 | Stable | 146 | > 645 | 11.3 | Stability [11]: Unstable; Drug metabolism [12]: Active; Drug metabolism [13]: Active; Activity [14]: 56%; Stability [15]: Unstable; Drug metabolism [16]: Active; Drug metabolism [17]: Not Active; Drug metabolism [18]: Active; Drug metabolism [19]: Active; Drug metabolism [9]: Active; Drug metabolism [20]: Active
7 | C/C(=N\OC(=O)[C@@H]1CCCN1)[C@H]1CC[C@H]2[C@@H]3CCC4=CC(=O)CC[C@]4(C)[C@H]3CC[C@]12C | 21 | Stable | 34 (≈ 14.5 µg/mL) | 395 (≈ 169 µg/mL) | – | Activity [21]: 33%
8 | C/C(=N\OC(=O)[C@@H]1CCC[N+]1(C)C)[C@H]1CC[C@H]2[C@@H]3CCC4=CC(=O)CC[C@]4(C)[C@H]3CC[C@]12C.[I-] | – | Stable | 51 | 345 | 0.833 | –
9 | C/C(=N\OC(=O)CN(C)C)[C@H]1CC[C@H]2[C@@H]3CCC4=CC(=O)CC[C@]4(C)[C@H]3CC[C@]12C | – | Stable | 171 (≈ 70.9 µg/mL) | 449 (≈ 186 µg/mL) | – | –
10 | C/C(=N\OC(=O)C[N+](C)(C)C)[C@H]1CC[C@H]2[C@@H]3CCC4=CC(=O)CC[C@]4(C)[C@H]3CC[C@]12C.[I-] | – | Stable | 45 | > 540 | 0.933 | –
11 | C/C(=N\OC(=O)CN1CCOCC1)[C@H]1CC[C@H]2[C@@H]3CCC4=CC(=O)CC[C@]4(C)[C@H]3CC[C@]12C | – | Stable | 215 (≈ 98.2 µg/mL) | 215 (≈ 98.2 µg/mL) | – | –
12 | C/C(=N\OC(=O)CN1CCN(C)CC1)[C@H]1CC[C@H]2[C@@H]3CCC4=CC(=O)CC[C@]4(C)[C@H]3CC[C@]12C | – | Stable | 145 (≈ 68.1 µg/mL) | 153 (≈ 71.9 µg/mL) | 70.6 | –
13 | C/C(=N\OC(=O)c1cccnc1)[C@H]1CC[C@H]2[C@@H]3CCC4=CC(=O)CC[C@]4(C)[C@H]3CC[C@]12C | 20 | Stable | < 35 | < 35 | – | t1/2 [5]: ND(Insoluble)
14 | C/C(=N\OC(=O)c1ccc[n+](C)c1)[C@H]1CC[C@H]2[C@@H]3CCC4=CC(=O)CC[C@]4(C)[C@H]3CC[C@]12C.[I-] | 0 | Stable | 212 | 349 | 3.1 | Activity [22]: 14%
15 | C/C(=N\OC(=O)c1ccc(CN)cc1)[C@H]1CC[C@H]2[C@@H]3CCC4=CC(=O)CC[C@]4(C)[C@H]3CC[C@]12C.Cl | – | Stable | < 30 | < 30 | – | t1/2 [5]: ND(Insoluble)
16 | C/C(=N\OC(=O)c1ccc(CN2CCN(C)CC2)cc1)[C@H]1CC[C@H]2[C@@H]3CCC4=CC(=O)CC[C@]4(C)[C@H]3CC[C@]12C | – | Stable | < 30 | < 30 | – | t1/2 [5]: ND(Insoluble)
17 | C/C(=N\OC(=O)C1CCNCC1)[C@H]1CC[C@H]2[C@@H]3CCC4=CC(=O)CC[C@]4(C)[C@H]3CC[C@]12C.Cl | 4 | Stable | 247 | 247 | 94.8 | Activity [21]: 24%
18 | C/C(=N\OC(=O)C1CCN(C)CC1)[C@H]1CC[C@H]2[C@@H]3CCC4=CC(=O)CC[C@]4(C)[C@H]3CC[C@]12C | – | Stable | 108 (≈ 49.1 µg/mL) | > 660 | – | –
19 | C/C(=N\OC(=O)C1CC[N+](C)(C)CC1)[C@H]1CC[C@H]2[C@@H]3CCC4=CC(=O)CC[C@]4(C)[C@H]3CC[C@]12C.[I-] | 0 | Stable | > 500 | > 500 | 70.6 | –
20 | C/C(=N\OC(=O)[C@@H]1CCCNC1)[C@H]1CC[C@H]2[C@@H]3CCC4=CC(=O)CC[C@]4(C)[C@H]3CC[C@]12C.Cl | – | Stable | 428 | > 500 | 38.5 | –
21 | C/C(=N\OC(=O)[C@H]1CCCNC1)[C@H]1CC[C@H]2[C@@H]3CCC4=CC(=O)CC[C@]4(C)[C@H]3CC[C@]12C.Cl | – | Stable | 314 | 314 | 40.8 | –
22 | CC(=O)[C@H]1CC[C@H]2[C@@H]3CCC4=C/C(=N/OC(=O)[C@@H](N)C(C)C)CC[C@]4(C)[C@H]3CC[C@]12C.Cl | 27 | Stable | 172 | 322 | 10.1 | Stability [11]: Unstable; Drug metabolism [12]: Active; Drug metabolism [13]: Active; Activity [14]: 59%; Stability [15]: Unstable; Drug metabolism [16]: Active; Drug metabolism [17]: Not Active; Drug metabolism [18]: Active; Drug metabolism [20]: Active
23 | CC(=O)[C@H]1CC[C@H]2[C@@H]3CCC4=CC(=O)CC[C@]4(C)[C@H]3CC[C@]12C [PROGESTERONE] | 4 | – | < 25 | < 25 | > 240 | Activity [23]: 42%; Activity [14]: 62%; half-life [24]: 0.417 h
